From paper PMC5059489, “Mechanistic evaluation and transcriptional signature of a glutathione S-transferase omega 1 inhibitor” (Nature Communications, 2016)
Several values for one entry are separate records, joined by “and”; a condition that tells them apart may be missing. Identical values can stand only once. Like-named read-outs stand apart in the source and are kept apart here. Blank lines part the entries; values can stand above or below the compound they belong to.

What was measured:
[1] = target: T1, GSTO1 (Homo sapiens, UniProt P78417); assay: GSTO1 substrate assay (reduction of 4-NPG)
T1 sequence (P78417 1-241): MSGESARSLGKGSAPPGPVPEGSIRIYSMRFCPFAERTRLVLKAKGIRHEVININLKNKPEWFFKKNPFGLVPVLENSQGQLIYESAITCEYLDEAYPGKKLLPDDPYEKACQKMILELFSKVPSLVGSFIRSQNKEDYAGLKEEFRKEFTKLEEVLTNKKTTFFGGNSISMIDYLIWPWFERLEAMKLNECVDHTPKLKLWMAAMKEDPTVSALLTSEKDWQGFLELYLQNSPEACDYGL
Procedure: For activity screening, we adapted a GSTO1 substrate assay that relies on the quantification of the reduction of S-(4-nitrophenacyl)glutathione (4-NPG), a GSTO1-specific substrate[17], using recombinant human GSTO1 in a high-throughput screening format.
Enzyme activity was measured by monitoring the reduction of 4-NPG to 4-nitroacetophenone by GSTO1.

[2] = tested on: HCT116 cells; assay: Bru-seq nascent RNA profiling; conditions: C1-14 (10 μM) 4 h vs DMSO
Procedure: The data set was analysed using the DAVID, ingenuity pathway analysis (IPA) and GSEA for pathway identification. […] Data sets with nearly 250 genes containing the gene identifiers and fold changes were uploaded to the IPA web-based application and each gene identifier was mapped to its corresponding gene object in the ingenuity pathways knowledge base. Finally, the biological function genes were ordered by P value of significance and maximum number of genes in the pathway. Bru-Seq data were further analysed using GSEA for exploring the mechanism of cellular action of GSTO1 and its inhibitor. A pre-ranked gene list of the Bru-Seq data set was submitted to GSEA, and enrichment analysis was done based on the Kolmogorov–Smirnov statistic[59][60]. […] For each gene set, the ES (enrichment score) was normalized to account for differences in gene set size and the false discovery rate relative to the normalized enrichment score values was calculated.

[3] = target: T1, GSTO1; assay: In-gel fluorescence competitive CMFDA binding assay, recombinant GSTO1; conditions: inhibition of CMFDA binding
Excerpt: (§2) Primary screening of GSTO inhibitors was based on competitive inhibition of CMFDA binding to endogenous GSTO. Briefly, HCT116^p53+/+ cells (4 × 10^4 per well) were coated in a 12-well plate. […] Cells were then washed with PBS and lysed using Cell Lytic M buffer (Sigma). […] Gels were immediately scanned on a Typhoon variable mode imager (Amersham Bioscience). Quantification of fluorescent band intensity was done using Image Quant 5.2 software.

[4] = target: T2, endogenous GSTO1 (Homo sapiens, UniProt P78417); assay: In-gel fluorescence competitive CMFDA binding assay, endogenous GSTO1 in HCT116; conditions: for GSTO binding assay (% Inhibition at 10 µM) Endogenous: inhibition of CMFDA binding, HCT116; for IC50: read-out: Competitive Binding assay Endogenous GSTO1 IC50
T2 sequence (P78417 1-241): T1 sequence (P78417 1-241)
Excerpt: as §2

[5] = tested on: HCT116p53+/+ cell; assay: MTT cell proliferation at single concentration; type: cell-based, human
In short: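 Cancer cells attached overnight, exposed to GSTO1 inhibitors for 72 h, then MTT added for 3 h at 37 °C; formazan dissolved in DMSO, absorbance read at 570 nm. At least three independent dose–response experiments, triplicate per concentration.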

[6] = tested on: HT29; assay: MTT cytotoxicity GI50, HT29; type: cell-based
Procedure: (§1) Cell proliferation was assessed by a MTT assay. Cancer cells were seeded in 96-well microtitre plates and, after overnight attachment, treated with GSTO1 inhibitors. After 72 h, MTT solution (3 mg ml^−1; 20 μl) was added to each well and cells were incubated for 3 h at 37 °C. After incubation, media from each well was removed and the dark blue formazan crystals formed by live cells were dissolved in DMSO (150 μl per well). The absorbance intensity was measured at 570 nm on a microplate reader (Molecular Devices, Sunnyvale, CA, USA). Cell viability after 24 h treatment was assessed using ApoTox-Glo triplex assay (Promega) according to the manufacturer's protocol. At least three independent dose–response experiments with each concentration tested in triplicate were performed for each cell line.

[7] = target: PDI (Homo sapiens, UniProt P07237); assay: PDI activity assay (PDI-catalysed reduction of insulin); type: biochemical; parameters: made in house; conditions: for Fold selectivity: GSTO1 versus PDI enzyme inhibition; for IC50: inhibition of PDI-catalyzed reduction of insulin
Procedure: The reduction reaction was catalysed by PDI at room temperature, and the resulting aggregation of reduced insulin B chains was measured at 620 nm. % PDI activity was calculated from absorbance values at T=0 and 80 min.

[8] = tested on: HCT116; assay: MTT cytotoxicity GI50, HCT116; type: cell-based, human
Procedure: as §1

[9] = tested on: H460; assay: MTT cytotoxicity GI50, H460; type: cell-based; conditions: H460
Procedure: as §1

[10] = tested on: NCIADR Res; assay: MTT cytotoxicity GI50, NCI-ADR/Res; type: cell-based
Excerpt: Colon cancer cell line HCT116 was generously provided by Dr Bert Vogelstein, Johns Hopkins Medical Institutions, Baltimore, MD. Pancreatic cancer cell line Panc-1 was obtained from Dr Alan Epstein, University of Southern California. All other cell lines were purchased from the American Type Culture Collection (Manassas, VA). MDA-MB-435 cell line was used in the GSTO1 knockdown experiment as it had high GSTO1 expression (Supplementary Fig. 17). We also tested active compounds in NCI-ADR/Res cell line since GSTO1 is implicated in drug resistance. Cell lines were cultured in RPMI 1640 or […] supplemented with 10% fetal bovine serum at 37 °C in a humidified atmosphere of 5% CO2. All cell lines were maintained in culture under 30 passages and tested regularly for Mycoplasma contamination using PlasmoTest (InvivoGen, San Diego, CA, USA).
as §1

[11] = target: T1, GSTO1; assay: Pre-incubation and dilution assay; type: biochemical; parameters: inferred from pQE30 vector and Ni-NTA purification; made in house; host or cells: Escherichia coli M15 (Rep4); conditions: pre-incubation and dilution
Procedure: 4-NPG (20 μl, 0.5 mM) was added and decrease in absorbance was monitored. % Recovery of enzyme activity was determined using a DMSO control.

[12] = Substrate assay IC50, pilot screening
[13] = read-out: GSTO substrate assay IC50, cluster screening tables

PDI, sequence (P07237 18-508, species assumed): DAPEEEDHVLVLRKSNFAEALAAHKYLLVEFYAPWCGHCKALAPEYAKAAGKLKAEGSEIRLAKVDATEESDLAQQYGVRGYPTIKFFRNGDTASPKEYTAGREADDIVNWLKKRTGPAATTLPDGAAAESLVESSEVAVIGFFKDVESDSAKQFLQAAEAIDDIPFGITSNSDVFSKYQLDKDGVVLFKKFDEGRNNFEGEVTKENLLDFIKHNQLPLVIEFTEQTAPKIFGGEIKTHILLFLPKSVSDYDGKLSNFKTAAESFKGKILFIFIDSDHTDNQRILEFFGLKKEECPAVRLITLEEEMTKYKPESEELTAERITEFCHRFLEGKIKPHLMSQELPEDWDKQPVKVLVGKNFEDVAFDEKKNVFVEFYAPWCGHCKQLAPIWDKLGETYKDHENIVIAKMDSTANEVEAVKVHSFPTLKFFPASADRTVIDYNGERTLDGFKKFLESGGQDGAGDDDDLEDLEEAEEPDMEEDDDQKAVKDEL

Compound: CN(C)c1ccc(Cl)cc1NC(=O)CCl [C1-14]
GSTO substrate assay % Inhibition at 10 µM [1]: 16.5%
ATP5L2 fold change [2]: 0.70
ATP6AP1L fold change [2]: 0.71
AURKAPS1 fold change [2]: 0.68
BACE1-AS fold change [2]: 0.60
HFM1 fold change [2]: 8.78
HIST1H1E fold change [2]: 8.67
HIST1H2AC fold change [2]: 5.52
HIST1H2AG fold change [2]: 10.36
HIST1H2AH fold change [2]: 6.00
HIST1H2AI fold change [2]: 8.25
HIST1H2AJ fold change [2]: 11.27
HIST1H2BJ fold change [2]: 5.45
HIST1H2BL fold change [2]: 15.96
HIST1H2BN fold change [2]: 5.80
HIST1H3H fold change [2]: 6.41
HIST1H4C fold change [2]: 5.72
HIST1H4D fold change [2]: 7.81
HIST1H4K fold change [2]: 18.57
HIST2H2AB fold change [2]: 5.21
HIST2H3D fold change [2]: 7.39
HIST3H2BB fold change [2]: 6.97
HIST4H4 fold change [2]: 7.84
HSP90AB4P fold change [2]: 0.72
HUS1B fold change [2]: 0.46
IER3 fold change [2]: 0.72
LINC00115 fold change [2]: 0.64
LINC00311 fold change [2]: 0.62
LINC00471 fold change [2]: 0.67
P2RX5-TAX1BP3 fold change [2]: 0.65
REP15 fold change [2]: 0.70
RIBC2 fold change [2]: 0.70
RPA4 fold change [2]: 0.69
RPPH1 fold change [2]: 16.74
SCARNA10 fold change [2]: 5.37
SLC7A5P1 fold change [2]: 0.38
TIGD6 fold change [2]: 0.71
TNFAIP3 fold change [2]: 0.71
TYRO3P fold change [2]: 0.65
ZNF572 fold change [2]: 0.70
ZNF670-ZNF695 fold change [2]: 0.58
GSTO binding assay (% Inhibition at 10 µM) Recombinant [3]: -15.6%
GSTO binding assay (% Inhibition at 10 µM) Endogenous [4]: 6.7%

Compound: O=C(CCl)Nc1ccc(S(=O)(=O)C(F)F)cc1 [C1-24]
GSTO substrate assay % Inhibition at 10 µM [1]: 77%
IC50 [1, 13]: 148 nM
% Inhibition of HCT116p53+/+ cell proliferation at 10 µM [5]: 89.5% and 91.8%
GI50 [6]: 5100 ± 1300 nM
GSTO binding assay (% Inhibition at 10 µM) Recombinant [3]: 68.4%
GSTO binding assay (% Inhibition at 10 µM) Endogenous [4]: 62.1%
Fold selectivity [7]: 24.1
IC50 [7]: 3570 ± 690 nM
GI50 [8]: 3300 ± 1100 nM

Compound: CN(c1ccccc1)S(=O)(=O)c1cccc(NC(=O)CCl)c1 [C1-28]
GSTO substrate assay % Inhibition at 10 µM [1]: 87.6%
IC50 [1, 13]: 64 nM
GI50 [9]: 4500 nM
% Inhibition of HCT116p53+/+ cell proliferation at 10 µM [5]: 94.4%
GI50 [6]: 2700 ± 500 nM
GI50 [10]: 3800 nM
GSTO binding assay (% Inhibition at 10 µM) Recombinant [3]: 71.5%
mode of GSTO1 enzyme inhibition [11]: slow-turnover substrate
GSTO binding assay (% Inhibition at 10 µM) Endogenous [4]: 57.2%
IC50 [4]: 8 nM
Fold selectivity [7]: 19.5
IC50 [7]: 1250 ± 230 nM
GI50 [8]: 2200 ± 700 nM

Compound: O=C(CCl)Nc1cc(S(=O)(=O)N(C(=O)CCl)c2cccc(Cl)c2)ccc1Cl [C1-29]
GSTO substrate assay % Inhibition at 10 µM [1]: 102.3%
IC50 [1, 13]: 30 nM
% Inhibition of HCT116p53+/+ cell proliferation at 10 µM [5]: 42.5%
GI50 [6]: 15500 ± 200 nM
GSTO binding assay (% Inhibition at 10 µM) Recombinant [3]: 70.6%
GSTO binding assay (% Inhibition at 10 µM) Endogenous [4]: 61.0%
IC50 [4]: 44 nM
Fold selectivity [7]: 48.7
IC50 [7]: 1460 ± 330 nM
GI50 [8]: 13700 ± 1300 nM

More lines, now with the values ahead:

IC50 [1, 12]: 3500 nM
melting point: 80 to 82 °C
Compound: O=C(CCl)Nc1ccc(F)cc1F [2a]

IC50 [1, 12]: 1700 nM
melting point: 122 to 123 °C
Compound: O=C(CCl)Nc1c(F)cc(F)cc1[N+](=O)[O-] [2b]

IC50 [1, 12]: 710 nM
melting point: 130 to 132 °C
Compound: O=C(CCl)Nc1cc(F)c(F)cc1[N+](=O)[O-] [2c]

IC50 [1, 12]: 3900 nM
melting point: 136 to 138 °C
Compound: O=C(CCl)Nc1cc(F)cc(F)c1NC(=O)CCl [4b]
